The values below come from the OligoGym collection.

In the data set the target is HBV. The following applies: ASO.

Several values for one entry are separate records, joined by “and”; a condition that tells them apart may be missing. Equal entries are not always repeated. HELM strings list units from the 5' end as sugar, base in round brackets, then linkage (d deoxyribose, r ribose, m 2'-O-methyl, p phosphodiester). Methylation of C is not given here. [moe] = 2'-O-(2-methoxyethyl) (MOE); [cEt] = constrained ethyl (cEt); [sp] = phosphorothioate linkage

Regarding “RNA1{[moe](G)[sp].[moe](G)[sp].[moe](A)[sp].[moe](G)[sp].[moe](T)[sp].[moe](T)[sp].d(C)[sp].d(C)[sp].d(G)[sp].d(C)[sp].d(A)[sp].d(G)[sp].d(T)[sp].d(A)[sp].d(T)[sp].[moe](G)[sp].[moe](G)}$$$$V2.0”, the target mRNA inhibition was 2% (HepG2, 0.0092593 µM); 25% (HepG2, 0.0277778 µM); 55% (HepG2, 0.0833333 µM); 74% (HepG2, 0.25 µM).

Consider “RNA1{[moe](A)[sp].[moe](A)[sp].[moe](G)[sp].[moe](C)[sp].[moe](G)[sp].d(A)[sp].d(A)[sp].d(G)[sp].d(T)[sp].d(G)[sp].d(C)[sp].d(A)[sp].d(C)[sp].d(A)[sp].[moe](C)[sp].[moe](G)[sp].[moe](G)}$$$$V2.0”, for which the target mRNA inhibition by setting is: (HepG2, 0.0092593 µM) 8%; (HepG2, 0.0277778 µM) 26%; (HepG2, 0.07 µM) 77% and 76%; (HepG2, 0.0833333 µM) 62%; (HepG2, 0.25 µM) 85%.

Turning to “RNA1{[moe](T)[sp].[moe](C)[sp].[moe](C)[sp].d(G)[sp].d(C)[sp].d(A)[sp].d(G)[sp].d(T)[sp].d(A)[sp].d(T)[sp].d(G)[sp].d(G)[sp].[moe](A)[sp].[moe](T)[sp].[moe](C)[sp].[moe](G)[sp].[moe](G)}$$$$V2.0”, where the note is “HepG2, 0.07 µM”, the target mRNA inhibition was 68% and 58%. The same measure, in the same setting: then “RNA1{[moe](G)[sp].[moe](A)[sp].[moe](T)[sp].[moe](G)[sp].[moe](A)[sp].d(G)[sp].d(G)[sp].d(C)[sp].d(A)[sp].d(T)[sp].d(A)[sp].d(G)[sp].d(C)[sp].d(A)[sp].[moe](G)[sp].[moe](C)}$$$$V2.0”, with 45% and 31%. Still for that read-out and setting: then “RNA1{[moe](T)[sp].[moe](T)[sp].[moe](A)[sp].[moe](T)[sp].d(G)[sp].d(C)[sp].d(C)[sp].d(T)[sp].d(A)[sp].d(C)[sp].d(A)[sp].d(G)[sp].d(C)[sp].[moe](C)[sp].[moe](T)[sp].[moe](C)}$$$$V2.0”, with 42% and 46%. With “RNA1{[moe](A)[sp].[cEt](A)[sp].d(G)[sp].d(C)[sp].d(G)[sp].d(A)[sp].d(A)[sp].d(G)[sp].d(T)[sp].d(G)[sp].d(C)[sp].d(A)[sp].[cEt](C)[sp].[moe](A)[sp].[cEt](C)[sp].[moe](G)}$$$$V2.0”, the target mRNA inhibition (HepG2, 0.0092593 µM) was 20%; the target mRNA inhibition (HepG2, 0.0277778 µM) is 40%; the target mRNA inhibition (HepG2, 0.07 µM) was 82% and 75%; the target mRNA inhibition (HepG2, 0.0833333 µM) is 75%; the target mRNA inhibition (HepG2, 0.25 µM) came out at 89%. With “RNA1{[moe](A)[sp].[moe](C)[sp].[moe](G)[sp].d(G)[sp].d(G)[sp].d(C)[sp].d(A)[sp].d(A)[sp].d(C)[sp].d(A)[sp].d(T)[sp].d(A)[sp].[moe](C)[sp].[moe](C)[sp].[moe](T)[sp].[moe](T)[sp].[moe](G)}$$$$V2.0”, the target mRNA inhibition (HepG2, 0.07 µM) is 43% and 34%. On the same count and under the same terms, then “RNA1{[moe](C)[sp].[moe](C)[sp].d(G)[sp].d(C)[sp].d(A)[sp].d(G)[sp].d(T)[sp].d(A)[sp].d(T)[sp].d(G)[sp].d(G)[sp].[moe](A)[sp].[moe](T)[sp].[moe](C)[sp].[moe](G)[sp].[moe](G)}$$$$V2.0”, with 63% and 52%. Consider “RNA1{[moe](A)[sp].[cEt](C)[sp].[cEt](T)[sp].d(A)[sp].d(G)[sp].d(T)[sp].d(A)[sp].d(A)[sp].d(A)[sp].d(C)[sp].d(T)[sp].d(G)[sp].d(A)[sp].[cEt](G)[sp].[cEt](C)[sp].[moe](C)}$$$$V2.0”, for which the target mRNA inhibition runs as follows: (HepG2, 0.0092593 µM) 24%; (HepG2, 0.0277778 µM) 55%; (HepG2, 0.07 µM) 77% and 85%; (HepG2, 0.0833333 µM) 74%; (HepG2, 0.25 µM) 88%.

Turning to “RNA1{[moe](C)[sp].[moe](A)[sp].[moe](C)[sp].d(T)[sp].d(A)[sp].d(G)[sp].d(T)[sp].d(A)[sp].d(A)[sp].d(A)[sp].d(C)[sp].d(T)[sp].[moe](G)[sp].[moe](A)[sp].[moe](G)[sp].[moe](C)}$$$$V2.0”, the target mRNA inhibition (HepG2, 0.07 µM) is 14% and 4%. With “RNA1{[moe](C)[sp].[cEt](G)[sp].[cEt](C)[sp].d(A)[sp].d(G)[sp].d(T)[sp].d(A)[sp].d(T)[sp].d(G)[sp].d(G)[sp].d(A)[sp].d(T)[sp].d(C)[sp].[cEt](G)[sp].[cEt](G)[sp].[moe](C)}$$$$V2.0”, under “HepG2, 0.07 µM”, the target mRNA inhibition was 81% and 78%. Same read-out and setting: the figure for “RNA1{[moe](A)[sp].[cEt](G)[sp].d(A)[sp].d(G)[sp].d(G)[sp].d(T)[sp].d(G)[sp].d(A)[sp].d(A)[sp].d(G)[sp].d(C)[sp].d(G)[sp].[cEt](A)[sp].[moe](A)[sp].[cEt](G)[sp].[moe](T)}$$$$V2.0” is 63% and 76%.

As to “RNA1{[moe](G)[sp].[moe](A)[sp].[moe](G)[sp].d(G)[sp].d(T)[sp].d(G)[sp].d(A)[sp].d(A)[sp].d(G)[sp].d(C)[sp].d(G)[sp].d(A)[sp].[moe](A)[sp].[moe](G)[sp].[moe](T)[sp].[moe](G)}$$$$V2.0”, the target mRNA inhibition (HepG2, 0.07 µM) was 57% and 54%.

As for “RNA1{[moe](A)[sp].[moe](A)[sp].d(T)[sp].d(T)[sp].d(T)[sp].d(A)[sp].d(T)[sp].d(G)[sp].d(C)[sp].d(C)[sp].d(T)[sp].[moe](A)[sp].[moe](C)[sp].[moe](A)[sp].[moe](G)[sp].[moe](C)}$$$$V2.0”, where the note is “HepG2, 0.07 µM”, the target mRNA inhibition is 27% and 19%.

Take “RNA1{[moe](A)[sp].[moe](A)[sp].[moe](C)[sp].[moe](T)[sp].d(G)[sp].d(G)[sp].d(A)[sp].d(G)[sp].d(C)[sp].d(C)[sp].d(A)[sp].d(C)[sp].d(C)[sp].[moe](A)[sp].[moe](G)[sp].[moe](C)}$$$$V2.0”: the target mRNA inhibition (HepG2, 0.07 µM) was 52% and 45%. On the same count and under the same terms, then “RNA1{[moe](A)[sp].[moe](A)[sp].[moe](C)[sp].d(T)[sp].d(G)[sp].d(G)[sp].d(A)[sp].d(G)[sp].d(C)[sp].d(C)[sp].d(A)[sp].d(C)[sp].d(C)[sp].[cEt](A)[sp].[cEt](G)[sp].[cEt](C)}$$$$V2.0”, with 56% and 63%. Regarding “RNA1{[moe](A)[sp].[moe](C)[sp].[moe](T)[sp].d(A)[sp].d(G)[sp].d(T)[sp].d(A)[sp].d(A)[sp].d(A)[sp].d(C)[sp].d(T)[sp].d(G)[sp].[moe](A)[sp].[moe](G)[sp].[moe](C)[sp].[moe](C)[sp].[moe](A)}$$$$V2.0”, under “HepG2, 0.07 µM”, the target mRNA inhibition is 66% and 67%. Same read-out and setting: then “RNA1{[moe](G)[sp].[moe](A)[sp].[moe](G)[sp].[moe](G)[sp].d(C)[sp].d(A)[sp].d(T)[sp].d(A)[sp].d(G)[sp].d(C)[sp].d(A)[sp].d(G)[sp].d(C)[sp].[moe](A)[sp].[moe](G)[sp].[moe](G)[sp].[moe](A)}$$$$V2.0”, with 35%. As for “RNA1{[moe](G)[sp].[cEt](T)[sp].d(T)[sp].d(C)[sp].d(C)[sp].d(G)[sp].d(C)[sp].d(A)[sp].d(G)[sp].d(T)[sp].d(A)[sp].d(T)[sp].[cEt](G)[sp].[moe](G)[sp].[cEt](A)[sp].[moe](T)}$$$$V2.0”, the target mRNA inhibition (HepG2, 0.07 µM) was 76% and 53%. On the same count and under the same terms, then “RNA1{[moe](T)[sp].[moe](C)[sp].[moe](C)[sp].d(G)[sp].d(C)[sp].d(A)[sp].d(G)[sp].d(T)[sp].d(A)[sp].d(T)[sp].d(G)[sp].d(G)[sp].d(A)[sp].[cEt](T)[sp].[cEt](C)[sp].[cEt](G)}$$$$V2.0”, with 73% and 53%; and “RNA1{[moe](G)[sp].[moe](G)[sp].[moe](T)[sp].d(G)[sp].d(A)[sp].d(A)[sp].d(G)[sp].d(C)[sp].d(G)[sp].d(A)[sp].d(A)[sp].d(G)[sp].[moe](T)[sp].[moe](G)[sp].[moe](C)[sp].[moe](A)}$$$$V2.0”, with 67% and 60%.

As for “RNA1{[moe](A)[sp].[cEt](G)[sp].[cEt](T)[sp].d(C)[sp].d(C)[sp].d(A)[sp].d(C)[sp].d(C)[sp].d(A)[sp].d(C)[sp].d(G)[sp].d(A)[sp].d(G)[sp].[cEt](T)[sp].[cEt](C)[sp].[moe](T)}$$$$V2.0”, the target mRNA inhibition (HepG2, 0.07 µM) was 62% and 45%. As to “RNA1{[moe](G)[sp].[cEt](A)[sp].[cEt](A)[sp].d(C)[sp].d(T)[sp].d(G)[sp].d(G)[sp].d(A)[sp].d(G)[sp].d(C)[sp].d(C)[sp].d(A)[sp].d(C)[sp].[cEt](C)[sp].[cEt](A)[sp].[moe](G)}$$$$V2.0”, the target mRNA inhibition (HepG2, 0.07 µM) is 65% and 51%. “RNA1{[moe](G)[sp].[moe](G)[sp].[moe](C)[sp].[cEt](A)[sp].[cEt](T)[sp].d(A)[sp].d(G)[sp].d(C)[sp].d(A)[sp].d(G)[sp].d(C)[sp].d(A)[sp].d(G)[sp].[moe](G)[sp].[moe](A)[sp].[moe](T)[sp].[moe](G)}$$$$V2.0”: the target mRNA inhibition reads like this: (HepG2, 0.009375 µM) 17%; (HepG2, 0.01875 µM) 32%; (HepG2, 0.0375 µM) 52%; (HepG2, 0.075 µM) 68%; (HepG2, 0.15 µM) 77%; (HepG2, 0.3 µM) 81%. Regarding “RNA1{[moe](C)[sp].[moe](A)[sp].[moe](G)[sp].d(A)[sp].d(G)[sp].d(G)[sp].d(T)[sp].d(G)[sp].d(A)[sp].d(A)[sp].d(G)[sp].d(C)[sp].[moe](G)[sp].[moe](A)[sp].[moe](A)[sp].[moe](G)[sp].[moe](T)}$$$$V2.0”, the target mRNA inhibition (HepG2, 0.07 µM) is 63% and 50%. Still for that read-out and setting: the figure for “RNA1{[moe](A)[sp].[moe](C)[sp].d(G)[sp].d(T)[sp].d(G)[sp].d(C)[sp].d(A)[sp].d(G)[sp].d(A)[sp].d(G)[sp].d(G)[sp].[moe](T)[sp].[moe](G)[sp].[moe](A)[sp].[moe](A)[sp].[moe](G)}$$$$V2.0” is 57% and 44%; for “RNA1{[moe](G)[sp].[moe](A)[sp].[moe](A)[sp].d(G)[sp].d(C)[sp].d(G)[sp].d(A)[sp].d(A)[sp].d(G)[sp].d(T)[sp].d(G)[sp].d(C)[sp].[moe](A)[sp].[moe](C)[sp].[moe](A)[sp].[moe](C)}$$$$V2.0” it is 52% and 50%. The same measure, in the same setting: then “RNA1{[moe](C)[sp].[cEt](G)[sp].[cEt](A)[sp].d(A)[sp].d(C)[sp].d(C)[sp].d(A)[sp].d(C)[sp].d(T)[sp].d(G)[sp].d(A)[sp].d(A)[sp].d(C)[sp].[cEt](A)[sp].[cEt](A)[sp].[moe](A)}$$$$V2.0”, with 64% and 48%.
